Where “and” joins values, the source holds several entries; their conditions need not be identical. Identical values can stand only once. Toxic doses and inconclusive results are not listed. Cut-off read from the data, not from the text of the source: active = T/C of 150% or more; inactive = T/C below 125%.
Test system: L1210 leukemia ip in BDF1 mice, survival T/C
Assay: NCI In Vivo Anticancer Drug Screen. Data for tumor model L1210 Leukemia (intraperitoneal) in B6D2F1 (BDF1) mice
Conditions: endpoint: mean survival time, higher = longer survival
Summary of the method: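 In this screen, tumor-bearing mice given compound are compared to those given vehicle, and their survival values are reported as a treated-to-control quotient.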

[1] = dose: 100.0 mg/kg/injection, schedule: Q04DX003 (ip), vehicle: saline
[2] = dose: 200.0 mg/kg/injection, schedule: Q01DX001 (ip), vehicle: carboxymethylcellulose (CMC)
[3] = dose: 400.0 mg/kg/injection, schedule: Q01DX001 (ip), vehicle: carboxymethylcellulose (CMC)
[4] = dose: 100.0 mg/kg/injection, schedule: Q01DX009 (ip), vehicle: Klucel (hydroxypropylcellulose) (HPC)
[5] = dose: 100.0 mg/kg/injection, schedule: Q04DX003 (ip), vehicle: Klucel (hydroxypropylcellulose) (HPC)
[6] = dose: 200.0 mg/kg/injection, schedule: Q01DX009 (ip), vehicle: Klucel (hydroxypropylcellulose) (HPC)
[7] = dose: 200.0 mg/kg/injection, schedule: Q04DX003 (ip), vehicle: Klucel (hydroxypropylcellulose) (HPC)
[8] = dose: 400.0 mg/kg/injection, schedule: Q01DX009 (ip), vehicle: Klucel (hydroxypropylcellulose) (HPC)
[9] = dose: 400.0 mg/kg/injection, schedule: Q04DX003 (ip), vehicle: Klucel (hydroxypropylcellulose) (HPC)
[10] = dose: 100.0 mg/kg/injection, schedule: Q01DX001 (ip), vehicle: Klucel (hydroxypropylcellulose) (HPC)
[11] = dose: 200.0 mg/kg/injection, schedule: Q01DX001 (ip), vehicle: Klucel (hydroxypropylcellulose) (HPC)
[12] = dose: 100.0 mg/kg/injection, schedule: Q04DX003 (ip), vehicle: saline with Tween-80
[13] = dose: 200.0 mg/kg/injection, schedule: Q04DX003 (ip), vehicle: saline with Tween-80
[14] = dose: 400.0 mg/kg/injection, schedule: Q04DX003 (ip), vehicle: saline with Tween-80
[15] = dose: 50.0 mg/kg/injection, schedule: Q04DX003 (ip), vehicle: saline
[16] = dose: 12.5 mg/kg/injection, schedule: Q01DX009 (ip), vehicle: saline
[17] = dose: 25.0 mg/kg/injection, schedule: Q01DX009 (ip), vehicle: saline

Measured: T/C

Oc1ccccc1C=NCCN1CC1.Oc1ccccc1C=NCCN1CC1.[Ni+2]
inactive: dose: 12.5 mg/kg/injection, schedule: Q01DX009 (ip), vehicle: saline with Tween-80 88 % of control | dose: 25.0 mg/kg/injection, schedule: Q01DX009 (ip), vehicle: saline with Tween-80 96 % of control | [1] 98 % of control

CCOC(=O)C(C)C1(c2ccccc2)OC(=O)c2ccccc21 (centres undefined)
inactive: dose: 100.0 mg/kg/injection, schedule: Q04DX002 (ip), vehicle: saline with Tween-80 108 % of control | dose: 200.0 mg/kg/injection, schedule: Q04DX002 (ip), vehicle: saline with Tween-80 112 % of control | dose: 400.0 mg/kg/injection, schedule: Q04DX002 (ip), vehicle: saline with Tween-80 97 % of control

BrCCC[CH2][Pb]([c]1ccccc1)([c]1ccccc1)[c]1ccccc1
inactive: dose: 50.0 mg/kg/injection, schedule: Q01DX001 (ip), vehicle: carboxymethylcellulose (CMC) 102 % of control | dose: 100.0 mg/kg/injection, schedule: Q01DX001 (ip), vehicle: carboxymethylcellulose (CMC) 105 % of control | [2] 111 % of control | [3] 100 % of control

COc1ccccc1/C=c1\[nH]c(=O)/c(=C/c2ccccc2OC)[nH]c1=O
inactive: [4] 88 % of control | [5] 101 % of control | [6] 86 % of control | [7] 101 % of control | [8] 86 % of control | [9] 98 % of control

O=[N+]([O-])c1cccc(C=Nc2cc(Cl)ccc2O)c1
inactive: [4] 95 % of control and 86 % of control | [6] 96 % of control and 97 % of control | [8] 100 % of control and 91 % of control

Clc1ccc(/C(=N\OC(c2ccccc2)c2ccccc2)c2ccccc2)cc1
inactive: dose: 200.0 mg/kg/injection, schedule: Q01DX001 (ip), vehicle: saline 86 % of control | dose: 400.0 mg/kg/injection, schedule: Q01DX001 (ip), vehicle: saline 87 % of control

CS(=O)(=O)OCC(=O)O
inactive: [10] 93 % of control | [11] 97 % of control

Cc1nc(Br)c(C(O)c2ccccc2)n1C (centres undefined)
inactive: [4] 100 % of control and 103 % of control | dose: 100.0 mg/kg/injection, schedule: Q04DX002 (ip), vehicle: Klucel (hydroxypropylcellulose) (HPC) 101 % of control and 103 % of control | [5] 93 % of control | [6] 95 % of control and 109 % of control | dose: 200.0 mg/kg/injection, schedule: Q04DX002 (ip), vehicle: Klucel (hydroxypropylcellulose) (HPC) 101 % of control and 103 % of control | [7] 97 % of control | [8] 95 % of control and 117 % of control | dose: 400.0 mg/kg/injection, schedule: Q04DX002 (ip), vehicle: Klucel (hydroxypropylcellulose) (HPC) 98 % of control and 100 % of control | [9] 95 % of control

CCCNC(=O)C1C2CCC(C2)C1C(=O)NCCC (centres undefined)
inactive: [12] 96 % of control | [13] 96 % of control | [14] 96 % of control

C(=N\n1cnnc1)/c1ccc(/C=N/n2cnnc2)cc1
inactive: dose: 100.0 mg/kg/injection, schedule: Q01DX009 (ip), vehicle: saline with Tween-80 98 % of control | [12] 105 % of control | dose: 200.0 mg/kg/injection, schedule: Q01DX009 (ip), vehicle: saline with Tween-80 88 % of control | [13] 105 % of control | dose: 400.0 mg/kg/injection, schedule: Q01DX009 (ip), vehicle: saline with Tween-80 89 % of control | [14] 98 % of control

Cc1cc(NCC2CCNCC2)nc(/N=C(\N)Nc2ccc(Cl)c(Cl)c2)n1
inactive: dose: 12.5 mg/kg/injection, schedule: Q04DX003 (ip), vehicle: saline 102 % of control | dose: 25.0 mg/kg/injection, schedule: Q04DX003 (ip), vehicle: saline 113 % of control | [15] 102 % of control | [1] 106 % of control

CCCCCCCCCCCC[N+](C)(C)C.C[As](C)(=O)[O-]
inactive: dose: 6.25 mg/kg/injection, schedule: Q01DX009 (ip), vehicle: saline 101 % of control | [16] 101 % of control | [17] 97 % of control and 101 % of control

C=C(C)C1CCC2(C(=O)O)CCC3(C)C(CCC4C5(C)CCC(O)C(C)(C)C5CCC43C)C12 (centres undefined)
inactive: [5] 104 % of control | [7] 97 % of control | [9] 96 % of control

N#CCCCCCCCCCC#N
inactive: dose: 10.0 mg/kg/injection, schedule: Q04DX003 (ip), vehicle: Klucel (hydroxypropylcellulose) (HPC) 93 % of control | dose: 20.0 mg/kg/injection, schedule: Q04DX003 (ip), vehicle: Klucel (hydroxypropylcellulose) (HPC) 100 % of control | dose: 40.0 mg/kg/injection, schedule: Q04DX003 (ip), vehicle: Klucel (hydroxypropylcellulose) (HPC) 109 % of control | [4] 96 % of control

S=C(Cc1ccccc1)N1CCCCC1
inactive: [4] 108 % of control | [5] 100 % of control | [6] 98 % of control | [7] 101 % of control | [8] 95 % of control

C=CC#N
inactive: dose: 6.0 mg/kg/injection, schedule: Q01DX009 (ip), vehicle: saline 95 % of control | dose: 12.0 mg/kg/injection, schedule: Q01DX009 (ip), vehicle: saline 93 % of control | [16] 98 % of control | [17] 93 % of control | dose: 50.0 mg/kg/injection, schedule: Q01DX009 (ip), vehicle: carboxymethylcellulose (CMC) 93 % of control | dose: 50.0 mg/kg/injection, schedule: Q01DX009 (ip), vehicle: saline 94 % of control and 105 % of control | [15] 91 % of control | dose: 100.0 mg/kg/injection, schedule: Q01DX009 (ip), vehicle: carboxymethylcellulose (CMC) 92 % of control | [2] 90 % of control | dose: 200.0 mg/kg/injection, schedule: Q01DX009 (ip), vehicle: carboxymethylcellulose (CMC) 93 % of control | [3] 95 % of control | dose: 400.0 mg/kg/injection, schedule: Q01DX009 (ip), vehicle: carboxymethylcellulose (CMC) 97 % of control | dose: 600.0 mg/kg/injection, schedule: Q01DX001 (ip), vehicle: carboxymethylcellulose (CMC) 98 % of control | dose: 600.0 mg/kg/injection, schedule: Q01DX009 (ip), vehicle: carboxymethylcellulose (CMC) 89 % of control | dose: 800.0 mg/kg/injection, schedule: Q01DX001 (ip), vehicle: carboxymethylcellulose (CMC) 93 % of control | dose: 800.0 mg/kg/injection, schedule: Q01DX009 (ip), vehicle: carboxymethylcellulose (CMC) 95 % of control

Cc1cc(C)c(C)c(NC(=O)NCCCl)c1C
inactive: [10] 92 % of control | [11] 88 % of control

O=C1N/C(=N\OCc2ccccc2)CC(NOCc2ccccc2)N1C1OC(CO)C(O)C1O (centres undefined)
inactive: [1] 92 % of control | dose: 200.0 mg/kg/injection, schedule: Q04DX003 (ip), vehicle: saline 92 % of control

CCCCN(CC)C(=S)[S-].CCCCN(CC)C(=S)[S-].[Zn]
inactive: dose: 2.5 mg/kg/injection, schedule: Q01DX009 (ip), vehicle: saline 100 % of control | dose: 5.0 mg/kg/injection, schedule: Q01DX009 (ip), vehicle: saline 95 % of control | dose: 10.0 mg/kg/injection, schedule: Q01DX001 (ip), vehicle: saline 98 % of control | dose: 10.0 mg/kg/injection, schedule: Q01DX009 (ip), vehicle: saline 95 % of control | dose: 10.0 mg/kg/injection, schedule: Q04DX003 (ip), vehicle: saline 105 % of control | dose: 20.0 mg/kg/injection, schedule: Q01DX001 (ip), vehicle: saline 89 % of control | dose: 20.0 mg/kg/injection, schedule: Q04DX003 (ip), vehicle: saline 103 % of control | dose: 40.0 mg/kg/injection, schedule: Q01DX001 (ip), vehicle: saline 91 % of control

CCCCCC(Oc1ccc(Cl)cc1)C(=O)OCC (centres undefined)
inactive: dose: 100.0 mg/kg/injection, schedule: Q01DX009 (ip), vehicle: saline 101 % of control | dose: 200.0 mg/kg/injection, schedule: Q01DX009 (ip), vehicle: saline 90 % of control | dose: 400.0 mg/kg/injection, schedule: Q01DX009 (ip), vehicle: saline 114 % of control

CCCCN1C(=O)C(c2ccccc2)C2(CCN(C)CC2)C1=O (centres undefined)
inactive: dose: 25.0 mg/kg/injection, schedule: Q01DX001 (ip), vehicle: Klucel (hydroxypropylcellulose) (HPC) 93 % of control | dose: 50.0 mg/kg/injection, schedule: Q01DX001 (ip), vehicle: Klucel (hydroxypropylcellulose) (HPC) 91 % of control | [10] 97 % of control and 98 % of control

Reference: PubChem BioAssay AID248 (DTP/NCI, 2004)
